In patent publication US7173019B2, “Linked cyclitols and their polysulfated derivatives” (The Australian National University, priority 2001, dated 2007):
Where two headings read alike, the source gives them in different places.

Key:
[1] = target: aFGF (Homo sapiens, UniProt P05230); experiment: Biacore biosensor: inhibition of aFGF binding to immobilised heparin and heparan sulfate; conditions: inhibitor 0.034 μM, aFGF 0.025 μM
Description: (§1) Assays were performed using a Biacore™ 2000 optical biosensor obtained from Biacore AB, Uppsala, Sweden. The biosensor was operated in accordance with the manufacturer's instructions. Briefly, neutravidin was covalently coupled to the surface of CM5 chips of the biosensor and then either biotinylated heparin (1 μg/ml) or biotinylated heparan sulfate ([…]) bound to the immobilised neutravidin. Mixtures of a test compound and a growth factor or other effector compound were preincubated for 2 to 5 minutes and the mixtures then added to individual biosensor cuvettes. Binding of growth factor or effector compound to the heparin or heparan sulfate was then monitored for approximately 5 minutes with the biosensor.
(§2) The tabulated values are the IC50 in μM or % inhibition of binding of the growth factor to the immobilised heparan sulfate (HS) or heparin.

[2] = target: bFGF (Homo sapiens, UniProt P09038); experiment: Biacore biosensor: inhibition of bFGF binding to immobilised heparin and heparan sulfate
Sequence of bFGF (P09038 134-288 limits assumed, species assumed): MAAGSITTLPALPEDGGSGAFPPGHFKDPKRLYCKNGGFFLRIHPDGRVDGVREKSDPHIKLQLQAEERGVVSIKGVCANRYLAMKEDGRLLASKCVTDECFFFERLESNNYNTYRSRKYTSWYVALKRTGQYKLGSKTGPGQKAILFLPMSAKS
Description: as §1, §2

[3] = target: T1, VEGF (Homo sapiens, UniProt P15692); experiment: Biacore biosensor: inhibition of VEGF binding to immobilised heparin and heparan sulfate; conditions: inhibitor 0.034 μM, VEGF 0.025 μM
T1 sequence (P15692 27-191 isoform P15692-4): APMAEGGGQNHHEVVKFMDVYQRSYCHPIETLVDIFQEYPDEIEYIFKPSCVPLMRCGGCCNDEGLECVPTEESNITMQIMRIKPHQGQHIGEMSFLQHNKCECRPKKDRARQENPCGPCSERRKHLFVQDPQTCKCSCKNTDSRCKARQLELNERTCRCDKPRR
Description: as §1, §2

[4] = target: T2, human platelet heparanase (Homo sapiens, UniProt Q9Y251); experiment: Heparanase inhibition, 3H-radiolabelled HS cleavage assay; assay type: biochemical; conditions: for inhibition: read-out: Relative inhibition (%); for EC50: heparanase inhibition; for inhibition at 10 µg/mL: read-out: Inhibition (%) at 10 μg/ml
T2 construct: 10 ng of purified human platelet heparanase; from tissue; host or cells: human platelets
T2 sequence (Q9Y251 158-543 limits assumed): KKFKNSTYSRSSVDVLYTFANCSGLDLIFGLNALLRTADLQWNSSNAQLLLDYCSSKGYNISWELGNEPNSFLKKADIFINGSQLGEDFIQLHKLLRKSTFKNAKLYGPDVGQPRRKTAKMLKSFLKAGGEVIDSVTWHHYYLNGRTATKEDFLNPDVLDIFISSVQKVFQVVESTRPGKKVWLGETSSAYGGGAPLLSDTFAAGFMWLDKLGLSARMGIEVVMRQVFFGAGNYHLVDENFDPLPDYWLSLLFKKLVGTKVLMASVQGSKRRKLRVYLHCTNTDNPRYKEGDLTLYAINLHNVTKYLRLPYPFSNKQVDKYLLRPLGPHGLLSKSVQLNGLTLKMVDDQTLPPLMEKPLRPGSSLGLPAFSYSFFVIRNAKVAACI
T2 sequence (Q9Y251 36-109 limits assumed): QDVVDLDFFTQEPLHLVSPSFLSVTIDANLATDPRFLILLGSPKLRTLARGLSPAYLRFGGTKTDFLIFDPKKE
Description: Briefly, to an incubation mixture of […] containing ^3H-radiolabelled porcine mucosal HS […], 50 mM-sodium acetate buffer, pH 5.0, […] bovine serum albumin and the inhibitor to be tested, was added 10 ng of purified human platelet heparanase and the mixture incubated for 30 min. The reaction was terminated by freezing the assay tubes. The substrate was separated from the cleavage products on minicolumns of sepharose-bound histidine-rich glycoprotein (Freeman, C., and Parish, C. R. [1997], supra).
Inhibitory activity is based on a comparison with heparin with 100% inhibition at 30 μg/ml. The compounds were also tested at the same purity as in Example 15.

[5] = target: T3, human leukocyte Cathepsin G (Homo sapiens, UniProt P08311); experiment: Cathepsin G inhibition, fluorogenic substrate, 96 well assay; assay type: biochemical; conditions: human leukocyte cathepsin G 100 ng, 37° C., 60 min, pH 6.6; for IC50: read-out: Amount for 50% inhibition (converted)
T3 construct: human leukocyte Cathepsin G (100 ng protein); from tissue; host or cells: human leukocytes
T3 sequence (P08311 21-244): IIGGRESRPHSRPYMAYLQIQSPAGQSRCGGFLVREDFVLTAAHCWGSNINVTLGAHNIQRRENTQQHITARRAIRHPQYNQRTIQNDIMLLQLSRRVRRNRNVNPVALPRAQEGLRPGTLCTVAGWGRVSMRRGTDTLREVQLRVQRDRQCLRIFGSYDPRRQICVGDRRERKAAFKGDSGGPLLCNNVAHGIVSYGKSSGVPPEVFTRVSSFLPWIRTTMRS
Description: Cathepsin G activity was determined using a 96 well assay format in PVC microtitre U-bottom plates with activity determination by a fluorescence plate reader. Briefly, within a total incubation volume of 40 μl, human leukocyte Cathepsin G (100 ng protein) was added to a mixture of inhibitor and the fluorogenic substrate MeOSuc-ala-ala-pro-phe-AMAC in 50 mM-NaOAc buffer, pH 6.6 containing 50 mM NaCl and 0.1% (v/v) Brij 35. The mixture was incubated at 37° C. for 60 min, the reaction stopped by the addition of 40 μl of 250 mM acetic acid and the fluorescence determined with excitation at 360 nm and emitted light measured at 460 nm.
In this table, the linked cyclitol compound identifications are the same as those given in Section A above where the structures of the compounds are also given. With regard to the purity rating, a greater number of asterisks signifies a greater degree of purity with five asterisks signifying an essentially pure compound. The cathepsin G inhibition data are the concentrations of compounds required to inhibit the enzyme by 50%.

[6] = target: T4, IL-8 (Homo sapiens, UniProt P10145); experiment: Biacore biosensor: inhibition of IL-8 binding to immobilised heparin and heparan sulfate; conditions: inhibitor 1.0 μM, IL-8 0.068 μM
T4 sequence (P10145 21-99): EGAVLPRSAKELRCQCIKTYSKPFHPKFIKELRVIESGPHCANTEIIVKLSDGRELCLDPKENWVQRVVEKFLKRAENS
Description: as §1

[7] = immobilised heparan sulfate, read-out: Inhibition of binding of aFGF (HS)
[8] = immobilised heparin, read-out: Inhibition of binding of aFGF (Hep)
[9] = immobilised heparan sulfate, inhibitor 0.034 μM, bFGF 0.034 μM, read-out: Inhibition of binding of bFGF (HS)
[10] = immobilised heparan sulfate, read-out: IC50, inhibition of bFGF binding (HS)
[11] = immobilised heparin, inhibitor 0.034 μM, bFGF 0.034 μM, read-out: Inhibition of binding of bFGF (Hep)
[12] = immobilised heparin, read-out: IC50, inhibition of bFGF binding (Hep)
[13] = immobilised heparan sulfate, read-out: Inhibition of binding of VEGF (HS)
[14] = immobilised heparin, read-out: Inhibition of binding of VEGF (Hep)
[15] = based on a comparison with heparin with 100% inhibition at 30 μg/ml
[16] = immobilised heparan sulfate, read-out: Inhibition of binding of IL-8 (HS)
[17] = immobilised heparin, read-out: Inhibition of binding of IL-8 (Hep)

Sequence of aFGF (P05230 whole entry, species assumed): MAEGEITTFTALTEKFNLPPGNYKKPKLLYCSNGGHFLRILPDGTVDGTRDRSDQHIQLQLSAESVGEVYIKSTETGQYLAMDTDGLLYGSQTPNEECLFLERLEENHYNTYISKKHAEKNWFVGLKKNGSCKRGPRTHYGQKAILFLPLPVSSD

Row | Structure (SMILES) | inhibition at 0.034 µM [1, 7] | inhibition at 0.034 µM [1, 8] | inhibition at 0.034 µM [2, 9] | IC50 [2, 10] | inhibition at 0.034 µM [2, 11] | IC50 [2, 12] | inhibition at 0.034 µM [3, 13] | inhibition at 0.034 µM [3, 14] | inhibition [4, 15] | EC50 ([4]; read-out: EC50 (converted)) | inhibition at 10 µg/mL [4] | IC50 [5] | inhibition at 1 µM [6, 16] | inhibition at 1 µM [6, 17] | other results
1 | O=S(=O)(O)O[C@H]1[C@H](OS(=O)(=O)O)[C@@H](N(CCCN([C@H]2C=C[C@@H](OS(=O)(=O)O)[C@@H](OS(=O)(=O)O)[C@@H]2OS(=O)(=O)O)[C@H]2C=C[C@@H](OS(=O)(=O)O)[C@@H](OS(=O)(=O)O)[C@@H]2OS(=O)(=O)O)[C@H]2C=C[C@@H](OS(=O)(=O)O)[C@@H](OS(=O)(=O)O)[C@@H]2OS(=O)(=O)O)C=C[C@H]1OS(=O)(=O)O [Compound 4a] | 73% | 74% | 29% | 110 nM | 20% | > 250 nM | 4% | 5% | 60% | 16200 nM | 37% | 162 nM | 38% | 48% | –
2 | O=S(=O)(O)O[C@H]1[C@H](OS(=O)(=O)O)[C@@H](N(CCCCCCCCCCN([C@H]2C=C[C@@H](OS(=O)(=O)O)[C@@H](OS(=O)(=O)O)[C@@H]2OS(=O)(=O)O)[C@H]2C=C[C@@H](OS(=O)(=O)O)[C@@H](OS(=O)(=O)O)[C@@H]2OS(=O)(=O)O)[C@H]2C=C[C@@H](OS(=O)(=O)O)[C@@H](OS(=O)(=O)O)[C@@H]2OS(=O)(=O)O)C=C[C@H]1OS(=O)(=O)O [Compound 4c] | 21% | 26% | 43% | – | 34% | – | 53% | 62% | 45% | 25500 nM | – | 158 nM | 77% | 76% | –
3 | O=S(=O)(O)O[C@H]1[C@H](OS(=O)(=O)O)[C@@H](N(CCN([C@H]2C=C[C@@H](OS(=O)(=O)O)[C@@H](OS(=O)(=O)O)[C@@H]2OS(=O)(=O)O)[C@H]2C=C[C@@H](OS(=O)(=O)O)[C@@H](OS(=O)(=O)O)[C@@H]2OS(=O)(=O)O)[C@H]2C=C[C@@H](OS(=O)(=O)O)[C@@H](OS(=O)(=O)O)[C@@H]2OS(=O)(=O)O)C=C[C@H]1OS(=O)(=O)O [Compound 4f] | 68% | 65% | 19% | 240 nM | 15% | > 250 nM | 0% | 0% | 60% | 11100 nM | 44% | 189 nM | 38% | 48% | –
4 | O=S(=O)(O)O[C@H]1[C@H](OS(=O)(=O)O)[C@@H](N(CCCCN([C@H]2C=C[C@@H](OS(=O)(=O)O)[C@@H](OS(=O)(=O)O)[C@@H]2OS(=O)(=O)O)[C@H]2C=C[C@@H](OS(=O)(=O)O)[C@@H](OS(=O)(=O)O)[C@@H]2OS(=O)(=O)O)[C@H]2C=C[C@@H](OS(=O)(=O)O)[C@@H](OS(=O)(=O)O)[C@@H]2OS(=O)(=O)O)C=C[C@H]1OS(=O)(=O)O [Compound 4g] | 43% | 44% | 44% | – | 31% | > 250 nM | 10% | 21% | 57% | 14100 nM | 42% | 128 nM | 42% | 67% | –
5 | O=S(=O)(O)OC[C@H]1O[C@@](COS(=O)(=O)O)(O[C@H]2O[C@H](COS(=O)(=O)O)[C@@H](OS(=O)(=O)O)[C@H](OS(=O)(=O)O)[C@H]2OS(=O)(=O)O)[C@@H](OS(=O)(=O)O)[C@@H]1OS(=O)(=O)O [Sucrose octasulfate, reference compound] | – | – | – | 925 nM | – | > 1000 nM | – | – | – | – | – | – | – | – | Inhibition of binding of aFGF (HS) ([1]; immobilised heparan sulfate): 0% (HS); Inhibition of binding of aFGF (Hep) ([1]; immobilised heparin): 0% (Hep); Inhibition of binding of bFGF (HS) ([2]; immobilised heparan sulfate, inhibitor 0.034 μM, bFGF 0.034 μM): 2.5% (HS); Inhibition of binding of bFGF (Hep) ([2]; immobilised heparin, inhibitor 0.034 μM, bFGF 0.034 μM): 0% (Hep); Inhibition of binding of VEGF (HS) ([3]; immobilised heparan sulfate): 0% (HS); Inhibition of binding of VEGF (Hep) ([3]; immobilised heparin): 0% (Hep); Relative inhibition (%) [4, 15]: 0%; EC50 [4]: >30 µg/mL; Amount for 50% inhibition [5]: 4.30 µg/mL

More lines, main results first:

Row | inhibition at 0.034 µM [1, 7] | inhibition at 0.034 µM [1, 8] | inhibition at 0.034 µM [2, 9] | IC50 [2, 10] | inhibition at 0.034 µM [2, 11] | IC50 [2, 12] | inhibition at 0.034 µM [3, 13] | inhibition at 0.034 µM [3, 14] | inhibition [4, 15] | EC50 ([4]; read-out: EC50 (converted)) | inhibition at 10 µg/mL [4] | IC50 [5] | inhibition at 1 µM [6, 16] | inhibition at 1 µM [6, 17] | Structure (SMILES) | other results
6 | – | – | – | 96 nM | – | > 250 nM | – | – | – | 5920 nM | – | 304 nM | – | – | O=S(=O)(O)OC1C(OS(=O)(=O)O)C(OS(=O)(=O)O)C(N(CCCCCCN(C2C(OS(=O)(=O)O)C(OS(=O)(=O)O)C(OS(=O)(=O)O)C(OS(=O)(=O)O)C2OS(=O)(=O)O)C2C(OS(=O)(=O)O)C(OS(=O)(=O)O)C(OS(=O)(=O)O)C(OS(=O)(=O)O)C2OS(=O)(=O)O)C2C(OS(=O)(=O)O)C(OS(=O)(=O)O)C(OS(=O)(=O)O)C(OS(=O)(=O)O)C2OS(=O)(=O)O)C(OS(=O)(=O)O)C1OS(=O)(=O)O (stereo not drawn) [Compound 5b] | –
7 | – | – | – | > 250 nM | – | > 250 nM | – | – | – | 20600 nM | – | 198 nM | – | – | O=S(=O)(O)OC1C(OS(=O)(=O)O)C(OS(=O)(=O)O)C(N(CCCCCCCCCCN(C2C(OS(=O)(=O)O)C(OS(=O)(=O)O)C(OS(=O)(=O)O)C(OS(=O)(=O)O)C2OS(=O)(=O)O)C2C(OS(=O)(=O)O)C(OS(=O)(=O)O)C(OS(=O)(=O)O)C(OS(=O)(=O)O)C2OS(=O)(=O)O)C2C(OS(=O)(=O)O)C(OS(=O)(=O)O)C(OS(=O)(=O)O)C(OS(=O)(=O)O)C2OS(=O)(=O)O)C(OS(=O)(=O)O)C1OS(=O)(=O)O (stereo not drawn) [Compound 5c] | heparanase inhibition, in words [4]: poor heparanase inhibitor
